{"source": "ChEMBL document CHEMBL1201862", "about": "“PubChem BioAssay data set” (2004)", "key": {"[1]": {"assay": "cytotoxicity in HEK293 background cells – cell-based, dry powder, set 2, counter-screen for EBV LMP1 inhibitor project, dose response (AID 624374)", "assay_type": "functional"}, "[2]": {"assay": "microbe, parasite or virus in culture", "assay_type": "functional", "details": "Mycobacterium tuberculosis"}, "[3]": {"assay": "HIV-1 AD8 envelope cell-cell fusion blockers – cherry-pick, dose response (AID 652062);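 also: potency is for inhibitors of fusion seen as a drop in luminescence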", "assay_type": "functional, cell-based"}, "[4]": {"assay": "cells", "assay_type": "functional"}, "[5]": {"assay": "viability loss in HeLa cells – cytotoxicity control for MgcRacGAP inhibitor project, dose response (AID 624300)", "assay_type": "functional"}, "[6]": {"assay": "off-target signal loss in HeLa-CEM21 co-culture – HeLa F-luc CTL cells, cherry-picked, counter-screen for HIV-1 Env fusion inhibitor project, dose response (AID 652040);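 also: potency for signal decrease marking cytotoxic or nonspecific inhibition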", "assay_type": "functional, cell-based"}, "[7]": {"assay": "viability loss in CEM21 cells – cell-based, CellTiter-Glo luminescence, cherry-picked, cytotoxicity control for viral fusion inhibitor project, dose response (AID 652042);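 also: potency for signal decrease meaning cytotoxicity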", "assay_type": "functional"}, "[8]": {"molecular_target": "T1, Rac GTPase-activating protein 1 (Homo sapiens, UniProt Q9H0H5)", "T1 sequence (Q9H0H5 whole entry)": "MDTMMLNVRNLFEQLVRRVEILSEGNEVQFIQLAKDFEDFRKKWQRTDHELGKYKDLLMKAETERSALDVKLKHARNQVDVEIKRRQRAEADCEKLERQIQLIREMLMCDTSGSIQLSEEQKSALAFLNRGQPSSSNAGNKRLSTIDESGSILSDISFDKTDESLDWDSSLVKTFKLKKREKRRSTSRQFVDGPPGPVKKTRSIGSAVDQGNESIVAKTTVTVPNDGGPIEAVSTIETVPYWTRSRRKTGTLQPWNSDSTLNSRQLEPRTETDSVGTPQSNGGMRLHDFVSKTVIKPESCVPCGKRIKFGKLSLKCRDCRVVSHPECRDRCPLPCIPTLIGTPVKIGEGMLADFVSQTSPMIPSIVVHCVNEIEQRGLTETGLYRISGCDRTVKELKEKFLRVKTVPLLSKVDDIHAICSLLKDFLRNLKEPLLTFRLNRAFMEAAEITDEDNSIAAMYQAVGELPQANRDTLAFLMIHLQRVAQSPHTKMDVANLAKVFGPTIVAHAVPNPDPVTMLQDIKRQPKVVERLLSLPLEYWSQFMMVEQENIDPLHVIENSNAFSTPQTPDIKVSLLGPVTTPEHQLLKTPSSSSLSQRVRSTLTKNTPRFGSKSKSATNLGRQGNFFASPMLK", "assay": "blockers of MgcRacGAP-driven Rac1 GTP hydrolysis – biochemical, ADP Hunter fluorescence, primary and confirmatory, confirmation (AID 624330)", "assay_type": "functional"}, "[9]": {"assay": "HepG2 cell cytotoxicity, dose response, cytotoxicity control for non-replicating M. tuberculosis project (AID 489018)", "assay_type": "functional", "details": "Mycobacterium tuberculosis"}, "[10]": {"assay": "blockers of HIV-1 ZM109 envelope-driven cell-cell fusion – HeLa effector, CEM target cells, luciferase, cherry-pick, dose response (AID 652058)", "assay_type": "functional, cell-based"}, "[11]": {"assay": "THP-1 cell cytotoxicity, dose response, cytotoxicity control for non-replicating M. tuberculosis project (AID 489025)", "assay_type": "functional"}, "[12]": {"assay": "blockers of HIV-1 envelope-mediated cell-cell fusion – cherry-pick, dose response (AID 652057)", "assay_type": "functional, cell-based"}, "[13]": {"system": "A549", "assay": "viability loss in A549 cells – cell-based, plate reader, cherry-pick samples, cytotoxicity control, dose response (AID 687028)", "assay_type": "functional", "details": "Homo sapiens"}, "[14]": {"molecular_target": "Eukaryotic translation initiation factor 4E (Mus musculus, UniProt P63073)", "sequence (P63073 whole entry)": "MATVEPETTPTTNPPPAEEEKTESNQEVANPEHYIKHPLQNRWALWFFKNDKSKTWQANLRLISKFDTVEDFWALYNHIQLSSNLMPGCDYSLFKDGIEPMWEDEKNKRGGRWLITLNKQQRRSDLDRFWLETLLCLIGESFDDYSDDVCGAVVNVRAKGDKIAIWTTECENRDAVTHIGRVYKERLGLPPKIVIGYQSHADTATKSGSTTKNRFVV", "assay": "blockers of eIF4G binding by eIF4E – biochemical, TR-FRET, dose response (AID 855);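 also: potency for disrupting eIF4E binding to eIF4GI seen as loss of FRET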", "assay_type": "functional"}, "[15]": {"assay": "Luminescence Cell-Based Dose Confirmation HTS to Identify Activators of 5'UTR Stem-Loop Driven Alpha-Synuclein mRNA Translation in H4 Neuroglioblastoma Cells. [Related pubchem assays: 1829 (Project Summary), 1814 (Primary HTS)]", "assay_type": "functional"}, "[16]": {"molecular_target": "Matrix metalloproteinase-14 (Homo sapiens, UniProt P50281)", "assay": "Dose Response confirmation of uHTS hits for a small molecule inhibitors of MT1-MMP activation in a fluorescence assay set 2.", "assay_type": "functional"}, "[17]": {"system": "H4", "assay": "Luminescence Cell-Based Dose Response HTS to Identify Activators of 5'UTR Stem-Loop Driven Prion Protein mRNA Translation in H4 Neuroglioblastoma Cells. [Related pubchem assays: 1829 (Project Summary), 1814 (Primary HTS)]", "assay_type": "functional", "details": "Homo sapiens"}, "[18]": {"molecular_target": "Induced myeloid leukemia cell differentiation protein Mcl-1 (Homo sapiens, UniProt Q07820)", "sequence (Q07820 whole entry)": "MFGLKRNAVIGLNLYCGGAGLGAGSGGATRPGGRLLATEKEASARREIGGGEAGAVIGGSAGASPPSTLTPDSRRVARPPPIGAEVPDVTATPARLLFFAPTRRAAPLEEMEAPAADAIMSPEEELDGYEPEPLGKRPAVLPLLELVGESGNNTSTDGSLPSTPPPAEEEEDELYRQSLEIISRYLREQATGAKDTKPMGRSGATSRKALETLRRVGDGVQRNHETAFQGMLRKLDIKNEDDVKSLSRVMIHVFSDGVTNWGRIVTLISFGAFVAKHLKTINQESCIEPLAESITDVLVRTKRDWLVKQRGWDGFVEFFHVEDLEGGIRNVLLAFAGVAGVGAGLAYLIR", "assay_type": "functional"}, "[19]": {"system": "Streptococcus sp. 'group A'", "assay": "Streptococcus pyogenes SK(-)GAS viability under kanamycin – luminescence, BacTiterGlo, confirmation, counter-screen for streptokinase expression inhibitor project, dose response (AID 1900)", "assay_type": "functional, organism-based"}, "[20]": {"system": "Streptococcus", "assay": "GAS UMAA2166 growth inhibition – luminescence, BacTiterGlo, counter-screen for streptokinase expression inhibitor project, dose response (AID 1915);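 also: potency for reduction of bacterial viability or growth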", "assay_type": "functional, organism-based"}, "[21]": {"assay": "Luminescence Cell-Based Dose Response HTS to Identify Activators of Luciferase Translation or Activity in H4 […] Cells. [Related pubchem assays: 1829 (Project Summary), 1814 (Primary HTS)]", "assay_type": "functional"}}, "note": "Activity calls are given as the source filed them."}
{"smiles": "CN(C)c1ccc2c(c1)[C@@H]1C[C@H](CC(=O)NCc3ccc(Oc4ccccc4)cc3)O[C@@H](CO)[C@@H]1O2", "values": [{"measurement": "AbsAC35", "setting": "[1]", "value": 41.71, "unit": "µM"}]}
{"smiles": "CC(NCCCOc1cccc2ccccc12)c1ccccc1", "note": "(stereo unspecified)", "values": [{"measurement": "CC50", "setting": "[2]", "value": "23.1 µM (active)"}, {"measurement": "AC50", "setting": "[3]", "value": "19.2 µM (active)"}, {"measurement": "IC50", "setting": "[4]", "value": "35.9 µM (active)"}, {"measurement": "CC50", "setting": "[5]", "value": "36.2 µM (active)"}, {"measurement": "AC50", "setting": "[6]", "value": "6.96 µM (active)"}, {"measurement": "AC50", "setting": "[7]", "value": "17.4 µM (active)"}, {"measurement": "IC50", "setting": "[8]", "value": "161 µM (active)"}, {"measurement": "CC50", "setting": "[9]", "value": "> 20 µM (active)"}, {"measurement": "AC50", "setting": "[10]", "value": "14.6 µM (active)"}, {"measurement": "CC50", "setting": "[11]", "value": "13.5 µM (active)"}, {"measurement": "AC50", "setting": "[12]", "value": "2.23 µM (active)"}]}
{"smiles": "COc1ccc(-c2ccc3c(c2)[C@@H]2[C@@H](CCN2C(=O)C2CCOCC2)[C@@H](CO)N3C)cc1", "values": [{"measurement": "AC50", "setting": "[13]", "value": "27.8 µM (active)"}]}
{"smiles": "COc1ccc2nc(N3C(=O)C(c4c(O)[nH]c5ccccc45)=NC3=S)sc2c1", "values": [{"measurement": "IC50", "setting": "[14]", "value": "> 64 µM (inactive)"}, {"measurement": "EC50", "setting": "[15]", "value": "> 120 µM (not active)"}, {"measurement": "IC50", "setting": "[16]", "value": "37.6 µM (inactive)"}, {"measurement": "EC50", "setting": "[17]", "value": "101 µM (active)"}, {"measurement": "IC50", "setting": "[18]", "value": "> 54 µM (active)"}, {"measurement": "EC50", "setting": "[19]", "value": "0.744 µM (active)"}, {"measurement": "EC50", "setting": "[20]", "value": "2.41 µM (active)"}, {"measurement": "EC50", "setting": "[21]", "value": "34.5 µM (active)"}]}
